Data on 22 compounds can be found in patent US11649255B2, “Indazoles as hematopoietic progenitor kinase 1 (HPK1) inhibitors and methods using same” (1st Biotherapeutics, Inc., priority 2020, dated 2023).

A word on the EC50: it is the concentration needed to bring the measured effect to its halfway point. By IC50 is commonly meant the concentration that inhibits the measured activity by half.

Read-outs that look alike come from different tables or passages of the source.

The subject of test [1] is human peripheral blood pan T cells. The test is described as follows: IFNγ and IL-2 analysis of human peripheral pan T cells. Format: cell-based. The settings on record: T-cell, CD3/CD28 bead stimulation, 100 nM Prostaglandin E2, 24 hr. Here is the method:
IFNγ and IL-2 Analysis of Human Peripheral Pan T Cells
Human peripheral blood pan T cells were purchased from STEMCELL™ Technologies Inc. Human peripheral blood pan T cells were thawed and suspended in DMEM media (10% FBS and 10 Penicillin/Streptomycin). 8×10^4 T cells were seeded in 96-well plate and incubated with various concentration of compounds and 100 nM Prostaglandin E2 for 1 hr. T cells were stimulated with Dynabeads Human T-Activator CD3/CD28 (Life Technologies) at a 1:3 cells: beads ratio. […] Data were analyzed with an MESO Quickplex SQ120 (Mesoscale Discovery).
In Table 3, the values represent + for >1000 nM, ++ 200-1,000 nM, +++ for <200 nM and − for not determined.

For test [2], the target named is recombinant human HPK1 (Homo sapiens (Human), UniProt Q92918). The test is described as follows: HPK1 kinase assay (ADP-Glo). The class given is biochemical. The settings on record: 25 μM ATP, MBP substrate. The gist of the method:
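Activity was read as ADP formed, detected by ADP-Glo luminescence after the reaction of 5 ng recombinant human HPK1 with MBP and ATP (stocks 0.5 μg/μl and 25 μM) for 40 min at 30 °C. Buffer was Tris pH 7.5 with MgCl2, BSA and DTT, with compound in 0.5% DMSO. IC50 came from inhibition curves.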
For orientation: ADP-Glo first removes unused ATP, then detects ADP through luciferase.

The mark [3] stands for this setting: IFNγ secretion, read-out: IFNγ (EC50).
Setting [4] is: IL-2 secretion, read-out: IL-2 (EC50).

recombinant human HPK1, sequence (Q92918 whole entry): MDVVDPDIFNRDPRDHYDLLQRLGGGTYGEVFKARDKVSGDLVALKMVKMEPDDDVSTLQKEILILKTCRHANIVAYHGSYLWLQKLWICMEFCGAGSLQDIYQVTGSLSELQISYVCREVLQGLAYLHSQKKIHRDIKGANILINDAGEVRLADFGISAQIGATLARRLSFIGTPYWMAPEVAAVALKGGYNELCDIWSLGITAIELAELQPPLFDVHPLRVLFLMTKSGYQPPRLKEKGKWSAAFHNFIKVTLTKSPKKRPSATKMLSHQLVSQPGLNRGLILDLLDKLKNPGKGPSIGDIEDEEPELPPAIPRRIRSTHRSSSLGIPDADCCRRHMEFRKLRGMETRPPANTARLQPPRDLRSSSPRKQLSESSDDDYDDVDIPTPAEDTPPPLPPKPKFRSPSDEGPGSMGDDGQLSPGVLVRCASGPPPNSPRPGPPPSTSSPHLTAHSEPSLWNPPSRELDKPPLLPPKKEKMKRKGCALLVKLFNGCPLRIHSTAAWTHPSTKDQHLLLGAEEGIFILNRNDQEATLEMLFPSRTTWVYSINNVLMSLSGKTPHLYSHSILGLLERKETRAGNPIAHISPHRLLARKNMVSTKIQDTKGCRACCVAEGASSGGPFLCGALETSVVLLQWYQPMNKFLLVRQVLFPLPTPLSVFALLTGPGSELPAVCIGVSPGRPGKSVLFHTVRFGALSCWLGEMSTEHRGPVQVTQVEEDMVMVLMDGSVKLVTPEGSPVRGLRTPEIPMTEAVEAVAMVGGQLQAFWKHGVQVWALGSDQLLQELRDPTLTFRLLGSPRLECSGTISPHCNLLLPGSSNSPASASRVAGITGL

As for `O=C(Nc1cc2cc(-c3c(Cl)c(F)c(SCCO)c4[nH]ncc34)ccn2n1)[C@@H]1C[C@@H]1F` [Example 520, (1S,2S)-N-(5-(5-chloro-6-fluoro-7-((2-hydroxyethyl)thio)-1H-indazol-4-yl)pyrazolo[1,5-a]pyridin-2-yl)-2-fluorocyclopropane-1-carboxamide], the concentration for a half-maximal effect (EC50) in test [1] (setting [3]) was in the range of 200 to 1000 nM. For the same compound, the IC50 in test [2] is < 100 nM.
On to `CCN(C)c1c(F)c(SC)c(-c2ccc3nc(NC(=O)[C@@H]4C[C@@H]4F)cn3c2)c2cn[nH]c12` [Example 324, (1S,2S)-N-(6-(7-(ethyl(methyl)amino)-6-fluoro-5-(methylthio)-1H-indazol-4-yl)imidazo[1,2-a]pyridin-2-yl)-2-fluorocyclopropane-1-carboxamide], for which the EC50 in test [1] (setting [3]) was < 200 nM; in test [1] (setting [4]) it was 200 to 1000 nM. In addition, in test [2], the IC50 is < 100 nM.
With `CCc1c(F)cc2[nH]ncc2c1-c1ccc2nc(NC(=O)[C@@H]3C[C@@H]3F)sc2n1` [Example 152, (1S,2S)—N-(5-(5-ethyl-6-fluoro-1H-indazol-4-yl)thiazolo[5,4-b]pyridin-2-yl)-2-fluorocyclopropane-1-carboxamide], the half-maximal effective concentration (EC50) in test [1] (setting [3]) and in test [1] (setting [4]) was 200 to 1000 nM each time. Further, the IC50 in test [2] was < 100 nM.
Regarding `CSc1c(F)cc2[nH]ncc2c1-c1ccn2nc(NC(=O)[C@@H]3C[C@@H]3F)cc2c1` [Example 530, (1S,2S)-2-fluoro-N-(5-(6-fluoro-5-(methylthio)-1H-indazol-4-yl)pyrazolo[1,5-a]pyridin-2-yl)cyclopropane-1-carboxamide], the concentration for a half-maximal effect (EC50) in test [1] (setting [3]) and in test [1] (setting [4]) was 200 to 1000 nM throughout. In addition, the IC50 in test [2] was < 100 nM.
As to `Cc1c(F)c(C(=O)N(C)C)c2[nH]ncc2c1-c1ccn2nc(NC(=O)[C@@H]3C[C@@H]3F)cc2c1` [Example 570, 6-fluoro-4-(2-((1S,2S)-2-fluorocyclopropane-1-carboxamido)pyrazolo[1,5-a]pyridin-5-yl)-N,N,5-trimethyl-1H-indazole-7-carboxamide], the concentration giving a half-maximal response (EC50) in test [1] (setting [3]) was < 200 nM; in test [1] (setting [4]), 200 to 1000 nM. Further, in test [2], the IC50 is < 100 nM.
Take `CCc1c(F)c(SC)c2[nH]ncc2c1-c1ccc2nc(NC(=O)[C@@H]3C[C@@H]3F)sc2n1` [Example 162, (1S,2S)-N-(5-(5-ethyl-6-fluoro-7-(methylthio)-1H-indazol-4-yl)thiazolo[5,4-b]pyridin-2-yl)-2-fluorocyclopropane-1-carboxamide]: in test [1] (setting [3]), the EC50 lay within 200 to 1000 nM. The IC50 in test [2] was < 100 nM.
Take `Cc1c(F)c(Cl)c(-c2ccn3nc(NC(=O)[C@@H]4C[C@@H]4F)cc3c2)c2cn[nH]c12` [Example 579, (1S,2S)-N-(5-(5-chloro-6-fluoro-7-methyl-1H-indazol-4-yl)pyrazolo[1,5-a]pyridin-2-yl)-2-fluorocyclopropane-1-carboxamide]: the EC50 was < 200 nM in test [1] (setting [3]) and > 1000 nM in test [1] (setting [4]). Also, the IC50 in test [2] was < 100 nM.
For the compound `CCOc1c(F)c(CC)c(-c2ccn3nc(NC(=O)[C@@H]4C[C@@H]4F)cc3c2)c2cn[nH]c12` [Example 531, (1S,2S)-N-(5-(7-ethoxy-5-ethyl-6-fluoro-1H-indazol-4-yl)pyrazolo[1,5-a]pyridin-2-yl)-2-fluorocyclopropane-1-carboxamide], the results for the EC50 in test [1] (setting [3]) and in test [1] (setting [4]) were < 200 nM and 200 to 1000 nM, respectively. Besides, the IC50 in test [2] is < 100 nM.
In the case of `Cc1c(F)c(OCCO)c2[nH]ncc2c1-c1ccn2nc(NC(=O)[C@@H]3C[C@@H]3F)cc2c1` [Example 534, (1S,2S)-2-fluoro-N-(5-(6-fluoro-7-(2-hydroxyethoxy)-5-methyl-1H-indazol-4-yl)pyrazolo[1,5-a]pyridin-2-yl)cyclopropane-1-carboxamide], in test [1] (setting [3]), the EC50 is < 200 nM. Further, the IC50 in test [2] was < 100 nM.
For `CCc1c(F)c(F)c2[nH]ncc2c1-c1ccn2nc(NC(=O)[C@@H]3C[C@@H]3F)cc2c1` [Example 532, (1S,2S)-N-(5-(5-ethyl-6,7-difluoro-1H-indazol-4-yl)pyrazolo[1,5-a]pyridin-2-yl)-2-fluorocyclopropane-1-carboxamide], in that order: 200 to 1000 nM and < 100 nM.
As to `CCOc1c(F)c(SC)c(-c2ccn3nc(NC(=O)[C@@H]4C[C@@H]4F)cc3c2)c2cn[nH]c12` [Example 543, (1S,2S)-N-(5-(7-ethoxy-6-fluoro-5-(methylthio)-1H-indazol-4-yl)pyrazolo[1,5-a]pyridin-2-yl)-2-fluorocyclopropane-1-carboxamide], the values for the 50% effective concentration (EC50) in test [1] (setting [3]) and in test [1] (setting [4]) were < 200 nM and 200 to 1000 nM, respectively. Besides, the IC50 in test [2] was < 100 nM.
Turning to `Cc1c(F)c(N(C)C)c2[nH]ncc2c1-c1ccc2nc(NC(=O)[C@@H]3C[C@@H]3F)sc2n1` [Example 169, (1S,2S)-N-(5-(7-(dimethylamino)-6-fluoro-5-methyl-1H-indazol-4-yl)thiazolo[5,4-b]pyridin-2-yl)-2-fluorocyclopropane-1-carboxamide], the concentration for a half-maximal effect (EC50) in test [1] (setting [3]) was 200 to 1000 nM; in test [1] (setting [4]), > 1000 nM. Besides, the IC50 in test [2] was < 100 nM.
Turning to `CCc1c(F)c(N(C)C)c2[nH]ncc2c1-c1ccc2nc(NC(=O)[C@@H]3C[C@@H]3F)sc2n1` [Example 161, (1S,2S)-N-(5-(7-(dimethylamino)-5-ethyl-6-fluoro-1H-indazol-4-yl)thiazolo[5,4-b]pyridin-2-yl)-2-fluorocyclopropane-1-carboxamide], the EC50 in test [1] (setting [3]) lay in the range of 200 to 1000 nM. Also, the IC50 in test [2] is < 100 nM.
For `CN(C)C(=O)c1c(F)c(Cl)c(-c2ccc3nc(NC(=O)[C@@H]4C[C@@H]4F)cn3c2)c2cn[nH]c12` [Example 320, 5-chloro-6-fluoro-4-(2-((1S,2S)-2-fluorocyclopropane-1-carboxamido)imidazo[1,2-a]pyridin-6-yl)-N,N-dimethyl-1H-indazole-7-carboxamide] the same measures were 200 to 1000 nM and < 100 nM.
Consider `Cc1c(F)c(C)c2[nH]ncc2c1-c1ccc2nc(NC(=O)[C@@H]3C[C@@H]3F)sc2n1` [Example 199, (1S,2S)-2-fluoro-N-(5-(6-fluoro-5,7-dimethyl-1H-indazol-4-yl)thiazolo[5,4-b]pyridin-2-yl)cyclopropane-1-carboxamide], for which the EC50 in test [1] (setting [3]) fell in the range of 200 to 1000 nM. In addition, the concentration for half-maximal inhibition (IC50) in test [2] is < 100 nM.
For `Cc1c(F)c(N(C)C)c2[nH]ncc2c1-c1ccc2nc(NC(=O)[C@@H]3C[C@@H]3F)sc2c1` [Example 104, (1S,2S)-N-(6-(7-(dimethylamino)-6-fluoro-5-methyl-1H-indazol-4-yl)benzo[d]thiazol-2-yl)-2-fluorocyclopropane-1-carboxamide], the EC50 was 200 to 1000 nM in test [1] (setting [3]) and > 1000 nM in test [1] (setting [4]). The IC50 in test [2] was < 100 nM.
For `CCOc1c(F)c(C)c(-c2ccc3nc(NC(=O)[C@@H]4C[C@@H]4F)sc3n2)c2cn[nH]c12` [Example 175, (1S,2S)-N-(5-(7-ethoxy-6-fluoro-5-methyl-1H-indazol-4-yl)thiazolo[5,4-b]pyridin-2-yl)-2-fluorocyclopropane-1-carboxamide], the EC50 in test [1] (setting [3]) is < 200 nM. Further, the IC50 in test [2] is < 100 nM.
With `CC(=O)N(C)c1c(F)c(Cl)c(-c2ccn3nc(NC(=O)[C@@H]4C[C@@H]4F)cc3c2)c2cn[nH]c12` [Example 552, (1S,2S)-N-(5-(5-chloro-6-fluoro-7-(N-methylacetamido)-1H-indazol-4-yl)pyrazolo[1,5-a]pyridin-2-yl)-2-fluorocyclopropane-1-carboxamide], the EC50 in test [1] (setting [3]) and in test [1] (setting [4]) was 200 to 1000 nM in each case. Further, the IC50 in test [2] was < 100 nM.
With `CC(=O)N(C)c1c(F)c(Cl)c(-c2ccc3nc(NC(=O)[C@@H]4C[C@@H]4F)sc3c2)c2cn[nH]c12` [Example 123, (1S,2S)-N-(6-(5-chloro-6-fluoro-7-(N-methylacetamido)-1H-indazol-4-yl)benzo[d]thiazol-2-yl)-2-fluorocyclopropane-1-carboxamide], the values for the EC50 in test [1] (setting [3]) and in test [1] (setting [4]) were 200 to 1000 nM and > 1000 nM, respectively. In addition, the IC50 in test [2] was < 100 nM.
Consider `CCc1c(F)c(SCC(=O)NC)c2[nH]ncc2c1-c1ccn2nc(NC(=O)[C@@H]3C[C@@H]3F)cc2c1` [Example 521, (1S,2S)-N-(5-(5-ethyl-6-fluoro-7-((2-(methylamino)-2-oxoethyl)thio)-1H-indazol-4-yl)pyrazolo[1,5-a]pyridin-2-yl)-2-fluorocyclopropane-1-carboxamide bis(2,2,2-trifluoroacetate)], for which the EC50 in test [1] (setting [3]) and in test [1] (setting [4]) was < 200 nM throughout. Also, the IC50 in test [2] is < 100 nM.
As to `CSc1c(F)c(F)c2[nH]ncc2c1-c1ccn2nc(NC(=O)[C@@H]3C[C@@H]3F)cc2c1` [Example 541, (1S,2S)-N-(5-(6,7-difluoro-5-(methylthio)-1H-indazol-4-yl)pyrazolo[1,5-a]pyridin-2-yl)-2-fluorocyclopropane-1-carboxamide], the EC50 in test [1] (setting [3]) fell in the range of 200 to 1000 nM. Moreover, the IC50 in test [2] was < 100 nM.
Regarding `CSc1c(F)c(C)c(-c2ccn3nc(NC(=O)[C@@H]4C[C@@H]4F)cc3c2)c2cn[nH]c12` [Example 488, (1S,2S)-2-fluoro-N-(5-(6-fluoro-5-methyl-7-(methylthio)-1H-indazol-4-yl)pyrazolo[1,5-a]pyridin-2-yl)cyclopropane-1-carboxamide], the EC50 in test [1] (setting [3]) lay in the range of 200 to 1000 nM. The IC50 in test [2] was < 100 nM.
